{"source": "paper PMC7214178", "about": "“Ligand‐specific recycling profiles determine distinct potential for chronic analgesic tolerance of delta‐opioid receptor (DOPr) agonists” (Journal of Cellular and Molecular Medicine, 2020)", "key": {"[1]": {"test_system": "rat model of streptozotocin (STZ)‐induced diabetic neuropathy", "assay": "Acute anti‐allodynic dose‐response after single i.t. injection (von Frey)", "assay_type": "in vivo", "conditions": "for Analgesia 60 min after injection vs vehicle: i.t. doses that reached maximal effect, one‐way ANOVA vs control, n = 3‐4; for Area under the curves, pEC50 ± SEM (M) / Peak analgesic response, pEC50 ± SEM (M): i.t. in 30 μL; for Area under the curves, pEC50 ± SEM (M) / Area under the curves, Relative EMAX ± SEM: analgesic response integrated over time (AUC); for Area under the curves, pEC50 ± SEM (M) / Peak analgesic response, pEC50 ± SEM (M) / Peak analgesic response, Relative EMAX ± SEM: four‐parameter logistic fit; for Area under the curves, pEC50 ± SEM (M) / Peak analgesic response, pEC50 ± SEM (M) / Area under the curves, Relative EMAX ± SEM / Peak analgesic response, Relative EMAX ± SEM: 3‐4 rats/dose; for Peak analgesic response, pEC50 ± SEM (M) / Peak analgesic response, Relative EMAX ± SEM: mechanical withdrawal threshold 30 min after injection; for Area under the curves, Relative EMAX ± SEM / Peak analgesic response, Relative EMAX ± SEM: normalized to maximal asymptote of agonist with largest effect", "source_text": "Adult male Sprague Dawley (SD) rats, weighing 235‐250 g, were purchased from Charles River laboratories and housed in a controlled environment on a 12‐hour light/dark cycle with free access to food and water. All experimental methods and animal care procedures were approved by the Animal Care Committee of University of Montreal (CDEA protocol 15‐013), in accordance with the guiding principles as enunciated by the Canadian Council on Animal Care.\n(§1) Type I diabetes was induced by systemic injection of streptozotocin (STZ, 65 mg/kg, i.p.) according to a standardized methodology, which allows development of persistent diabetic neuropathy after the first week of treatment. ^20 At the end of the first week, blood was extracted from the tail vein and blood glucose levels were measured with a glucometer (Accu‐Chek Aviva; Roche Diagnostics) prior to evaluation of analgesia on the second week.\n(§2) Mechanical allodynia is the consequence of maladaptive neuroplasticity following nerve damage. ^24 In a model of diabetic neuropathy as the one used in this study, hyperglycaemia contributes to generate reactive oxygen species which induce microglia activation and inflammatory mediators. ^25 , ^26 These mediators attenuate the activity of Gly/GABA interneurons in superficial layers ^24 , ^27 , ^28 , ^29 and disrupt the inhibitory control that prevents innocuous touch stimuli from producing pain which leads to allodynia. ^30 DOPrs are expressed in these light‐touch mechanoreceptors ^31 and up‐regulated during sensitization, ^32 , ^33 making DOPr agonists elective for relieving this type of pain. Allodynia was evaluated using Von Frey filaments as previously described. ^19 Briefly, rats were accustomed for 15 min on a metal mesh floor under an inverted plastic box (20 × 10 × 10 cm) in a quiet room dedicated to this behavioural test. After habituation, the plantar surface of the right and left hind legs was alternately touched (6‐8 seconds) with von Frey filaments of progressively wider diameter in order to find the threshold of pressure required to produce withdrawal. The mechanical threshold response was obtained by consigning the pressure in grams that would result in withdrawal of the paw in 50% of 10 trials. A normal rat responds to tactile pressures of 12‐15 g whereas neuropathic rats respond to pressures of 4‐6 g. ^24\nIn a first series of experiments, dose‐response curves to SNC‐80, SB235863, deltorphin II and TIPP were constructed following intrathecal (i.t.) injection of increasing doses until no increment in maximal anti‐allodynic response was observed. […] Each group of rats received only one ligand and a single dose per day. Saturation of the analgesic response on mechanical allodynia required assessing 5‐6 doses per ligand administered over a period of 5‐6 days, using 3‐4 animals/dose. Injections were made at mid‐lumbar level with a needle 23G × 1/2 under light anaesthesia using 4% isoflurane inhalation in a 1:1 mixture of oxygen and air. The animals were allowed to recover for 15 minutes before mechanical thresholds were determined. Threshold measures were repeated every 15 minutes until the analgesic response disappeared. Peak analgesic responses (30 minutes) or responses integrated over time (area under the curve: AUC) were consigned and plotted as a function of treatment dose. Curves were fitted with the four‐parameter logistic equation in GraphPad 7 to yield ED80 and ED50 values that were then used to treat rats for assessment of chronic tolerance. For each drug, the stock solution was prepared as follows: deltorphin II was dissolved in sterile artificial cerebrospinal fluid (CSF); TIPP and SB235863 stocks were dissolved in sterile water and SNC‐80 in DMSO. Each stock solution was diluted in CSF at required concentrations and injected i.t. in a final volume of 30 μL. Control animals were injected with 30 μL of CSF. At the end of behavioural experiments, rats were anaesthetized by isoflurane and killed by decapitation."}, "[2]": {"test_system": "rat model of streptozotocin (STZ)‐induced diabetic neuropathy", "assay": "Chronic (homologous) analgesic tolerance over six daily i.t. injections at ED80, with or without ECE2 inhibitor 6634449", "assay_type": "in vivo", "conditions": "for Anti‐allodynic response over 6‐day treatment: six consecutive i.t. injections at ED80, 24‐hour intervals, daily AUC, seven rats/group", "protocol": "as §1, §2\n(§3) To evaluate homologous tolerance, each agonist was injected i.t. once daily for six consecutive days, at ED80 derived from dose‐response curves (deltorphin‐IIED80: 0.30 nmol/30 μL; TIPPED80: 0.40 nmol/30 μL; SB235863ED80: 1.7 nmol/30 μL and SNC‐80ED80: 0.55 nmol/30 μL). Immediately after drug administration, mechanical allodynia was measured every 15 minutes until the analgesic response disappeared. […] Prior to starting any pharmacological treatment, the presence of allodynia was confirmed. Treatments and measures were carried out randomly by two different experimenters to ensure blinding to treatment for the person assessing allodynia. In a series of experiments, an inhibitor of endothelin‐converting enzyme 2 (ECE2), 6634449, was administered by i.t injection (3 nmol/30 μL) 20 minutes prior to administration of DOPr ligands from 2 to 7 days. The vehicle (4% DMSO diluted in CSF sterile) was given as control. The dose of 6634449 used in this study was based on results previously published. ^25\n(§4) Figure 1 Experimental design. One week after STZ administration, repeated treatments with DOPr agonists were started. Before starting chronic treatment with ED80 of deltorphin II, TIPP, SB235863 or SNC‐80, animals were tested to establish the baseline allodynia. Immediately after, they were injected with deltorphin II at a dose corresponding to ED50, which was repeated at the end of treatment. Allodynia measures were taken every 15 min after each injection until analgesic effects disappeared. Chronic tolerance was evaluated by comparing analgesic response to successive i.t. injections of each agonist between days 2 and 6. Difference in analgesic response to deltorphin II ED50 in days 1 and 8 allowed to establish tolerance induced by the different agonists to this common probe"}, "[3]": {"test_system": "rat model of streptozotocin (STZ)‐induced diabetic neuropathy", "assay": "Heterologous tolerance to a common probe (deltorphin II ED50) before and after 6‐day treatment, with or without 6634449", "assay_type": "in vivo", "conditions": "for Heterologous tolerance (response to deltorphin II ED50) with 6634449 co‐administration: 6634449 or vehicle i.t. 20 min before each of six agonist injections at ED80, five rats/group; for Tolerance to common probe deltorphin II (ED50) after 6‐day treatment: probe i.t. one day before and one day after six i.t. injections at ED80, 7 rats/group", "protocol": "as §1, §2, §3, §4"}, "DOPr": {"test_system": "DOPr", "set-up": "method as in PMID 24174495", "conditions": "cited from earlier work"}, "[4]": {"conditions": "peptidic ligands; cited from earlier work"}, "[5]": {"test_system": "endothelin‐converting enzyme 2 (ECE2)", "conditions": "endosomal protease that functions at acidic pH; cited from earlier work", "source_text": "Indeed, deltorphin II is a naturally occurring opioid peptide ^32 and TIPP is an opioid peptide analogue. ^33 On the other hand, SNC‐80 ^34 and SB235863 ^35 are synthetic, non‐peptide ligands."}, "[6]": {"conditions": "i.t., anti‐allodynic effect, STZ rats"}}}
{"compound": "CCC(C)COC(=O)c1[nH]c2c(c1C)CC1C3Cc4ccc(OC)c5c4C1(CCN3C)C2O5.Cl", "note": "(stereo not drawn) [SB235863, [8R‐(4bS*,8aα,8aβ,12bβ)]7,10‐dimethyl‐1‐methoxy‐11‐(2‐ethylpropyl)oxycarbonyl 5,6,7,8,12,12b‐hexahydro‐(9H)‐4,8‐methanobenzofuro[3,2‐e]pyrrolo[2,3‐g]isoquinoline hydrochloride]", "values": [{"measurement": "Analgesia 60 min after injection vs vehicle", "setting": "[1]", "result": "still present"}, {"measurement": "Area under the curves, pEC50 ± SEM (M)", "setting": "[1]; STZ rats", "result": "4.44 ± 0.03", "unit": "M"}, {"measurement": "Peak analgesic response, pEC50 ± SEM (M)", "setting": "[1]; STZ rats", "result": "4.50 ± 0.05", "unit": "M"}, {"measurement": "Area under the curves, Relative EMAX ± SEM", "setting": "[1]; i.t., STZ rats", "result": "100.6 ± 5.1"}, {"measurement": "Peak analgesic response, Relative EMAX ± SEM", "setting": "[1]; i.t., STZ rats", "result": "84.4 ± 8.8"}, {"measurement": "ED80 derived from dose‐response curves", "setting": "[1]; [6]", "result": 1.7, "unit": "nmol/30 μL"}, {"measurement": "Anti‐allodynic response over 6‐day treatment", "setting": "[2]", "result": "practically abolished"}, {"measurement": "Heterologous tolerance (response to deltorphin II ED50) with 6634449 co‐administration", "setting": "[3]", "result": "remained unchanged"}, {"measurement": "Tolerance to common probe deltorphin II (ED50) after 6‐day treatment", "setting": "[3]", "result": "induced cross‐tolerance"}, {"measurement": "Internalization in HEK cells", "setting": "DOPr", "result": "minimal internalization"}]}
{"compound": "C=CCN1C[C@H](C)N([C@H](c2ccc(C(=O)N(CC)CC)cc2)c2cccc(OC)c2)C[C@H]1C", "note": "[SNC‐80, (+)‐4‐[(αR)‐α‐((2S,5R)‐4‐allyl‐2,5‐dimethyl‐1‐piperazinyl)‐3‐methoxybenzyl]‐N,N‐diethylbenzamide]", "values": [{"measurement": "Analgesia 60 min after injection vs vehicle", "setting": "[1]", "result": "no longer significantly different from vehicle"}, {"measurement": "Area under the curves, pEC50 ± SEM (M)", "setting": "[1]; STZ rats", "result": "4.95 ± 0.18", "unit": "M"}, {"measurement": "Peak analgesic response, pEC50 ± SEM (M)", "setting": "[1]; STZ rats", "result": "5.15 ± 0.06", "unit": "M"}, {"measurement": "Area under the curves, Relative EMAX ± SEM", "setting": "[1]; i.t., STZ rats", "result": "87.9 ± 22.1"}, {"measurement": "Peak analgesic response, Relative EMAX ± SEM", "setting": "[1]; i.t., STZ rats", "result": "100 ± 7.8"}, {"measurement": "ED80 derived from dose‐response curves", "setting": "[1]; [6]", "result": 0.55, "unit": "nmol/30 μL"}, {"measurement": "Anti‐allodynic response over 6‐day treatment", "setting": "[2]", "result": "gradually decreased"}, {"measurement": "Heterologous tolerance (response to deltorphin II ED50) with 6634449 co‐administration", "setting": "[3]", "result": "remained unchanged"}, {"measurement": "Tolerance to common probe deltorphin II (ED50) after 6‐day treatment", "setting": "[3]", "result": "induced cross‐tolerance"}, {"measurement": "Internalization in HEK cells", "setting": "DOPr", "result": "marked internalization"}]}
{"compound": "deltorphin II", "values": [{"measurement": "Analgesia 60 min after injection vs vehicle", "setting": "[1]", "result": "no longer significantly different from vehicle"}, {"measurement": "Area under the curves, pEC50 ± SEM (M)", "setting": "[1]; STZ rats", "result": "5.09 ± 0.05", "unit": "M"}, {"measurement": "Peak analgesic response, pEC50 ± SEM (M)", "setting": "[1]; STZ rats", "result": "5.22 ± 0.86", "unit": "M"}, {"measurement": "Area under the curves, Relative EMAX ± SEM", "setting": "[1]; i.t., STZ rats", "result": "80.5 ± 8.0"}, {"measurement": "Peak analgesic response, Relative EMAX ± SEM", "setting": "[1]; i.t., STZ rats", "result": "91.0 ± 9.0"}, {"measurement": "ED50 (challenge dose)", "setting": "[1]; [6]", "result": 0.23, "unit": "nmol/30 μL"}, {"measurement": "ED80 derived from dose‐response curves", "setting": "[1]; [6]", "result": 0.30, "unit": "nmol/30 μL"}, {"measurement": "Analgesic t 1/2 (95% CI), rats pre‐treated with ECE2 inhibitor 6634449", "setting": "[2]; 6634449 3 nmol/30 μL (0.1 mmol/L) i.t. 20 min before each daily i.t. agonist injection at ED80, five rats/group", "result": "ill‐defined"}, {"measurement": "Tolerance / analgesia with 6634449 pre‐treatment compared with vehicle controls", "setting": "[2]; 6634449 0.1 mmol/L i.t. 20 min before each agonist injection at ED80, five rats/group", "result": "significantly shorter"}, {"measurement": "Day by which analgesic effects were reduced in animals exposed to 6634449", "setting": "[2]; 6634449 i.t. 20 min before each daily agonist injection at ED80", "result": 4, "unit": "days"}, {"measurement": "Anti‐allodynic response over 6‐day treatment", "setting": "[2]", "result": "maintained its analgesic response"}, {"measurement": "Analgesic t 1/2 (95% CI), rats pre‐treated with vehicle", "setting": "[2]; vehicle i.t. 20 min before each daily i.t. agonist injection at ED80, five rats/group", "result": "no measurable decay t 1/2"}, {"measurement": "Heterologous tolerance (response to deltorphin II ED50) with 6634449 co‐administration", "setting": "[3]", "result": "reduced analgesic effect"}, {"measurement": "Tolerance to common probe deltorphin II (ED50) after 6‐day treatment", "setting": "[3]", "result": "without effect"}, {"measurement": "Internalization in HEK cells", "setting": "DOPr", "result": "marked internalization"}, {"measurement": "Blood‐brain barrier penetration", "setting": "[4]", "result": "poor blood‐brain barrier penetration"}, {"measurement": "Substrate of ECE2", "setting": "[5]", "result": "one of the ECE2 substrates"}]}
